Measured values published in US10738080B2, “Inhibitors of beta integrin-G protein alpha subunit binding interactions” (priority 2010, dated 2020).
No end group written: not given here. *: point of attachment. Myristoyl = CCCCCCCCCCCCCC(=O)*

Each substance was assayed on human platelet-rich plasma. Settings: 250 μM peptide.
Description: Studies using human platelets were approved by the Institutional Review Board of University of Illinois at Chicago. […] Clot retraction was analyzed with the previously described method (S6, S7). Briefly, mouse platelets (6×10^8/ml) were resuspended in platelet-depleted human plasma, and 0.4 U/ml α-thrombin was added to initiate coagulation. The clots were photographed at various time points. Sizes of retracted clots on photographs were quantified using NIH Image J software. Statistical significance was determined using t-test.
Clot Retraction Assays were carried out as follows: Similar as described before(2, 3), freshly prepared human whole blood was citrated with 1/10 volume of 3.8% sodium citrate. After centrifugation at 1300 rpm for 22 min with break, platelet rich plasma (PRP) was collected. Pre-incubated of PRP with 0.05% DMSO (vehicle), 250 μM mP5 peptide, 250 μM mP13 peptide, or their corresponding scrambled control peptides mP5Scr or mP13Scr for 5 minutes at room temperature. After that, 0.5 U/ml thrombin was added into PRP and mixed gently. The clots were formed and allowed to retract at 37° C. incubator with CO2 and were photographed at various times. The two-dimensional sizes of retracted clots on photographs were quantified using Image J software and were expressed as clot size. Statistical significance was determined using a t test (n=3).
For Myr-EEERA [mP5], the clot retraction was “accelerated”. In the case of Myristoyl-KFEEERARAKWDT [mP13], the clot retraction is reported as “inhibited”. With Myristoyl-LLARRPTKGIHEY [mSRI] the clot retraction was “accelerated”.
